Test results: ChEMBL document CHEMBL6103618, “Discovery of Novel Oxazolo[4,3-f]purine Derivatives as Antitumor Agents through PPIA Interaction” (J Med Chem, 2025)
The source made the active and inactive calls. The calls are words filed in the database; no cut-off is given here.

Assays:
[1] = tested on: HCT-116; assay: Induction of apoptosis in human HCT-116 cells assessed as viable cells at 0.3 uM incubated for 48 hrs by Annexin V-FITC/PI staining based flow cytometry (reference value: 96.2 %); assay type: functional; conditions: read-out: Activity
[2] = Toxicity in BALB/c mouse implanted with mouse CT26 cells assessed as abnormality in kidney at 15 to 45 mg/kg, ip qd treated for 14 days by H and E staining based analysis; assay type: organism-based; conditions: in vivo, 336 h, dose 15-45 mg/kg, time 14 day
[3] = tested on: HCT-116; assay: Induction of apoptosis in human HCT-116 cells assessed as increase in cleaved caspase-3 level at 0.3 to 1.2 uM incubated for 48 hrs by Western blot analysis; assay type: functional, cell-based; conditions: dose 0.3-1.2 µM
[4] = tested on: HCT-116; assay: Antiproliferative activity against human HCT-116 cells assessed as inhibition of cell viability incubated for 48 hrs by CCK8 assay; assay type: functional, cell-based; conditions: HCT-116, 48 h
[5] = Acute toxicity in BALB/c mouse assessed as lethal dose administered intraperitoneally measured for 14 days; conditions: in vivo, route ip, time 14 day
[6] = Toxicity in BALB/c mouse implanted with mouse CT26 cells assessed as abnormality in lung at 15 to 45 mg/kg, ip qd treated for 14 days by H and E staining based analysis; assay type: organism-based; conditions: in vivo, 336 h, dose 15-45 mg/kg, time 14 day
[7] = tested on: HCT-116; assay: Induction of apoptosis in human HCT-116 cells assessed as viable cells at 1.2 uM incubated for 48 hrs by Annexin V-FITC/PI staining based flow cytometry (reference value: 96.2 %); assay type: functional; conditions: read-out: Activity
[8] = tested on: HCT-116; assay: Induction of DNA damage in human HCT-116 cells assessed as increase in p53 level at 0.3 to 1.2 uM incubated for 48 hrs by Western blot analysis; assay type: functional, cell-based; conditions: dose 0.3-1.2 µM
[9] = tested on: HCT-116; assay: Inhibition of colony formation in human HCT-116 cells incubated for 48 hrs followed by fresh media replacement without compound on every 72 hrs for 14 days by crystal violet staining based analysis; assay type: functional, cell-based; conditions: dose 0.3-1.2 µM
[10] = tested on: HCT-116; assay: Inhibition of cell viability in human HCT-116 cells at 0.3 to 1.2 uM incubated for 48 hrs; assay type: functional, cell-based; conditions: dose 0.3-1.2 µM
[11] = tested on: HCT-116; assay: Induction of cell cycle arrest in human HCT-116 cells assessed as accumulation at S phase at 1.2 uM incubated for 48 hrs by PI staining based flow cytometry (reference value: 34.55 %); assay type: functional
[12] = tested on: CT26; assay: Antitumor activity against mouse CT26 cells implanted in BALB/c mouse assessed as tumor growth inhibition administered intraperitoneally once daily for 14 days; assay type: functional; conditions: dose 15-45 mg/kg, route ip, time 14.0 day
[13] = tested on: CT26; assay: Antitumor activity against mouse CT26 cells implanted in BALB/c mouse assessed as reduction in tumor volume administered intraperitoneally once daily for 14 days; assay type: functional; conditions: dose 15-45 mg/kg, route ip, time 14.0 day
[14] = tested on: SW480; assay: Antiproliferative activity against human SW480 cells assessed as inhibition of cell viability incubated for 48 hrs by CCK8 assay; assay type: functional, cell-based; conditions: SW480, 48 h
[15] = tested on: HCT-116; assay: Effect on TK1 expression in human HCT-116 cells upto 6 uM incubated for 30 mins followed by pronase addition measured after 30 mins by DARTS assay; assay type: functional, cell-based
[16] = tested on: HCT-116; assay: Induction of mitochondrial dysfunction in human HCT-116 cells at 0.3 to 1.2 uM incubated for 48 hrs by Mito-Tracker Green probe based analysis; assay type: functional, cell-based; conditions: dose 0.3-1.2 µM
[17] = tested on: HCT-116; assay: Effect on SRSF7 expression in human HCT-116 cells upto 6 uM incubated for 30 mins followed by pronase addition measured after 30 mins by DARTS assay; assay type: functional, cell-based
[18] = tested on: HCT-116; assay: Induction of apoptosis in human HCT-116 cells harboring siNC assessed as early apoptotic cells at 1.2 uM by Annexin V-FITC/PI staining based flow cytometry (reference value: 1.52 %); assay type: functional
[19] = tested on: HCT-116; assay: Induction of apoptosis in human HCT-116 cells assessed as decrease in p-ERK1/2 level by Western blot analysis; assay type: functional, cell-based; conditions: dose 0.3-1.2 µM
[20] = tested on: HCT-116; assay: Anti-proliferative activity against human HCT-116 cells harboring siNC assessed as decrease in p-ERK1/2 level at 1.2 uM by Western blot analysis; assay type: functional, cell-based
[21] = tested on: HCT-116; assay: Induction of apoptosis in human HCT-116 cells harboring siPPIA-3 assessed as viable cells at 1.2 uM by Annexin V-FITC/PI staining based flow cytometry (reference value: 87.9 %); assay type: functional; conditions: read-out: Activity
[22] = tested on: PANC-1; assay: Antiproliferative activity against human PANC-1 cells assessed as inhibition of cell viability incubated for 48 hrs by CCK8 assay; assay type: functional, cell-based; conditions: PANC-1, 48 h
[23] = tested on: HCT-116; assay: Induction of ER stress in human HCT-116 cells at 0.3 to 1.2 uM incubated for 48 hrs by ER-Tracker Red dye based analysis; assay type: functional, cell-based; conditions: dose 0.3-1.2 µM
[24] = tested on: HCT-116; assay: Induction of apoptosis in human HCT-116 cells harboring siNC assessed as late apoptotic cells at 1.2 uM by Annexin V-FITC/PI staining based flow cytometry (reference value: 1.35 %); assay type: functional
[25] = tested on: HCT-116; assay: Effect on NME1 expression in human HCT-116 cells upto 6 uM incubated for 30 mins followed by pronase addition measured after 30 mins by DARTS assay; assay type: functional, cell-based; conditions: time 60.0 min
[26] = tested on: HCT-116; assay: Induction of apoptosis in human HCT-116 cells harboring siPPIA-3 assessed as early apoptotic cells at 1.2 uM by Annexin V-FITC/PI staining based flow cytometry (reference value: 7.82 %); assay type: functional
[27] = tested on: HCT-116; assay: Anti-proliferative activity against human HCT-116 cells harboring siNC assessed as decrease in p-p38 level at 1.2 uM by Western blot analysis; assay type: functional, cell-based
[28] = tested on: HCT-116; assay: Induction of apoptosis in human HCT-116 cells assessed as late apoptotic cells at 0.3 uM incubated for 48 hrs by Annexin V-FITC/PI staining based flow cytometry (reference value: 1.55 %); assay type: functional
[29] = tested on: HCT-116; assay: Induction of mitochondrial dysfunction in human HCT-116 cells at 0.3 to 1.2 uM by JC-1 dye based analysis; assay type: functional, cell-based; conditions: dose 0.3-1.2 µM
[30] = tested on: HCT-116; assay: Cytotoxicity against human HCT-116 cells harboring siPPIA-3 assessed as inhibition of cell viability incubated for 48 hrs by CCK8 assay; assay type: functional, cell-based; conditions: HCT-116, 48 h
[31] = Toxicity in BALB/c mouse implanted with mouse CT26 cells assessed as injury in heart at 15 to 45 mg/kg, ip qd treated for 14 days by H and E staining based analysis; assay type: organism-based; conditions: in vivo, 336 h, dose 15-45 mg/kg, time 14 day
[32] = tested on: HCT-116; assay: Induction of apoptosis in human HCT-116 cells assessed as decrease in p-p38 level by Western blot analysis; assay type: functional, cell-based; conditions: dose 0.3-1.2 µM
[33] = tested on: HCT-116; assay: Anti-proliferative activity against human HCT-116 cells harboring siNC assessed as decrease in p-JNK level at 1.2 uM by Western blot analysis; assay type: functional, cell-based
[34] = tested on: HCT-116; assay: Anti-migration activity in human HCT-116 cells incubated for 24 hrs by wound healing assay; assay type: functional, cell-based; conditions: dose 0.3-1.2 µM
[35] = Acute toxicity in BALB/c mouse assessed as death rate at 500 mg/kg, ip measured for 14 days; assay type: organism-based; conditions: both, in vivo, time 14 day, read-out: Activity
[36] = tested on: HCT-116; assay: Induction of apoptosis in human HCT-116 cells harboring siPPIA-3 assessed as late apoptotic cells at 1.2 uM by Annexin V-FITC/PI staining based flow cytometry (reference value: 3.44 %); assay type: functional
[37] = tested on: HCT-116; assay: Inhibition of colony formation in human HCT-116 cells harboring siNC at 1.2 uM incubated for 48 hrs followed by fresh media replacement without compound on every 72 hrs for 14 days by crystal violet staining based analysis; assay type: functional, cell-based

With `C=C(C(=O)OC)N1c2nc(Cl)nc(Cl)c2N2C(c3ccccc3F)OC(C(=O)OCC)(C(=O)OCC)C12` (racemic) the viability at 0.3 µM [1] was 82.9%, the Activity [2] was “Non-toxic” and the Activity [3] was “Active”. For the same molecule, the IC50 [4] was 510 nM, the LD50 at 336 h [5] was 453 mg/kg and the Activity [6] was “Non-toxic”. For the same molecule, the viability at 1.2 µM [7] was 68%, the Activity [8] was “Active” and the inhibition [9] was “Dose-dependent-effect”. For the same molecule, the inhibition [10] was “Active”, the Activity [11] was 28.16% and the inhibition [12] was “Dose-dependent-effect”. The Activity [13] was “Dose-dependent-effect”, the IC50 [14] was 2590 nM and the Activity [15] was “No effect”. For the same molecule, the Activity [16] was “Active”, the Activity [17] was “No effect” and the Activity [18] was 16.8%. The Activity [19] was “Dose-dependent-effect”, the Activity [20] was “Active” and the viability at 1.2 µM [21] was 87%. The IC50 [22] was 3310 nM, the Activity [23] was “Active” and the Activity [24] was 4.87%. The Activity [25] was “No effect”, the Activity [26] was 8.6% and the Activity [27] was “Active”. For the same molecule, the Activity [28] was 3.56%, the Activity [29] was “Active” and the IC50 [30] was 1940 nM. For the same molecule, the Activity [31] was “Non-toxic”, the Activity [32] was “Dose-dependent-effect” and the Activity [33] was “Active”. The Activity [34] was “Dose-dependent-effect”, the mortality at 336 h [35] was 60% and the Activity [36] was 3.25%. The inhibition [37] was “Active”.
